Test results as given in US12077503B2, “Substituted cyclic amides and their use as herbicides” (FMC CORPORATION, priority 2015, dated 2024).

Experiments:
Format in all cases: in vivo
[1] = tested on: giant foxtail (Setaria faberi); test: Test G Pre-Emergence Protocol; conditions: Setaria faberi, pre-emergence, 312 h, evaluated after 13 days
Procedure, shortened: (§1)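 One day after sowing, pots are treated with a spray of test compound formulated in acetone/water 50:50 plus 0.5% Tween 20, giving 15.625, 62.5 or 250 g/ha. Evaluation on a 0–100 damage scale follows 13 days of glasshouse growth.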

[2] = tested on: ivy-leaved morning glory (Ipomoea hederacea); test: Test G Pre-Emergence Protocol; conditions: Ipomoea, pre-emergence, 312 h, evaluated after 13 days
Procedure, shortened: as §1

[3] = tested on: barnyardgrass (Echinochloa crus-galli); test: Test G Pre-Emergence Protocol; conditions: Echinochloa crus-galli, pre-emergence, 312 h, evaluated after 13 days
Procedure, shortened: as §1

[4] = tested on: velvetleaf (Abutilon theophrasti); test: Test G Pre-Emergence Protocol; conditions: Abutilon theophrasti, pre-emergence, 312 h, evaluated after 13 days
Procedure, shortened: as §1

corn (Zea mays) [5] = test: Test G Pre-Emergence Protocol; conditions: Zea mays, pre-emergence, 312 h, evaluated after 13 days
Procedure, shortened: as §1

[6] = tested on: redroot pigweed (Amaranthus retroflexus); test: Test G Pre-Emergence Protocol; conditions: Amaranthus retroflexus, pre-emergence, 312 h, evaluated after 13 days
Procedure, shortened: as §1

[7] = tested on: giant foxtail (Setaria faberi); test: Test G Post-Emergence Protocol; conditions: Setaria faberi, post-emergence, 312 h, read-out: Foxtail, Giant damage rating
Procedure, shortened: (§2)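 Values are percent visual injury at 13 days after treatment (0 none, 100 total). Treatment was a post-emergence spray at 15.625, 62.5 or 250 g/ha on 8-day-old pot plants kept at 24/16 °C.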

[8] = tested on: ivy-leaved morning glory (Ipomoea hederacea); test: Test G Post-Emergence Protocol; conditions: Ipomoea, post-emergence, 312 h, read-out: Morningglory, Ivy-leaved damage rating
Procedure, shortened: as §2

[9] = tested on: barnyardgrass (Echinochloa crus-galli); test: Test G Post-Emergence Protocol; conditions: Echinochloa crus-galli, post-emergence, 312 h, read-out: Barnyardgrass damage rating
Procedure, shortened: as §2

[10] = tested on: velvetleaf (Abutilon theophrasti); test: Test G Post-Emergence Protocol; conditions: Abutilon theophrasti, post-emergence, 312 h, read-out: Velvetleaf damage rating
Procedure, shortened: as §2

corn (Zea mays) [11] = test: Test G Post-Emergence Protocol; conditions: Zea mays, post-emergence, 312 h, read-out: Corn damage rating
Procedure, shortened: as §2

[12] = tested on: redroot pigweed (Amaranthus retroflexus); test: Test G Post-Emergence Protocol; conditions: Amaranthus retroflexus, post-emergence, 312 h, read-out: Pigweed, Redroot damage rating
Procedure, shortened: as §2

[13] = 15.625 g ai/ha, evaluated after 13 days (100=total damage to plant; 0=no damage to plant)
[14] = 62.5 g ai/ha, evaluated after 13 days, 100=total damage to plant, 0=no damage to plant
[15] = 250 g ai/ha, evaluated after 13 days, 100=total damage to plant, 0=no damage to plant

Cc1ccc([C@H]2CN(C)C(=O)[C@@H]2C(=O)Nc2cccc3c2S(=O)(=O)CC3)cc1 (racemic) [Compound 1739]
0%: pest or weed control at 15.625 g/ha ([1]; 15.625 g ai/ha, read-out: Foxtail, Giant damage rating (100=total damage to plant; 0=no damage to plant)) | pest or weed control at 62.5 g/ha ([1]; 62.5 g ai/ha, 100=total damage to plant, 0=no damage to plant, read-out: Foxtail, Giant damage rating) | pest or weed control at 250 g/ha ([1]; 250 g ai/ha, read-out: Foxtail, Giant damage rating (100=total damage to plant; 0=no damage to plant)) | pest or weed control at 15.625 g/ha ([2]; 15.625 g ai/ha, read-out: Morningglory, Ivy-leaved damage rating (100=total damage to plant; 0=no damage to plant)) | pest or weed control at 62.5 g/ha ([2]; 62.5 g ai/ha, 100=total damage to plant, 0=no damage to plant, read-out: Morningglory, Ivy-leaved damage rating) | pest or weed control at 250 g/ha ([2]; 250 g ai/ha, read-out: Morningglory, Ivy-leaved damage rating (100=total damage to plant; 0=no damage to plant)) | pest or weed control at 15.625 g/ha ([3]; 15.625 g ai/ha, read-out: Barnyardgrass damage rating (100=total damage to plant; 0=no damage to plant)) | pest or weed control at 62.5 g/ha ([3]; 62.5 g ai/ha, 100=total damage to plant, 0=no damage to plant, read-out: Barnyardgrass damage rating) | pest or weed control at 250 g/ha ([3]; 250 g ai/ha, read-out: Barnyardgrass damage rating (100=total damage to plant; 0=no damage to plant)) | pest or weed control at 15.625 g/ha ([4]; 15.625 g ai/ha, read-out: Velvetleaf damage rating (100=total damage to plant; 0=no damage to plant)) | pest or weed control at 62.5 g/ha ([4]; 62.5 g ai/ha, 100=total damage to plant, 0=no damage to plant, read-out: Velvetleaf damage rating) | pest or weed control at 250 g/ha ([4]; 250 g ai/ha, read-out: Velvetleaf damage rating (100=total damage to plant; 0=no damage to plant)) | plant injury at 15.625 g/ha (corn (Zea mays) [5]; 15.625 g ai/ha, read-out: Corn damage rating (100=total damage to plant; 0=no damage to plant)) | plant injury at 62.5 g/ha (corn (Zea mays) [5]; 62.5 g ai/ha, 100=total damage to plant, 0=no damage to plant, read-out: Corn damage rating) | plant injury at 250 g/ha (corn (Zea mays) [5]; 250 g ai/ha, read-out: Corn damage rating (100=total damage to plant; 0=no damage to plant)) | pest or weed control at 15.625 g/ha ([6]; 15.625 g ai/ha, read-out: Pigweed, Redroot damage rating (100=total damage to plant; 0=no damage to plant)) | pest or weed control at 62.5 g/ha ([6]; 62.5 g ai/ha, 100=total damage to plant, 0=no damage to plant, read-out: Pigweed, Redroot damage rating) | pest or weed control at 250 g/ha ([6]; 250 g ai/ha, read-out: Pigweed, Redroot damage rating (100=total damage to plant; 0=no damage to plant)) | pest or weed control at 15.625 g/ha [7, 13] | pest or weed control at 62.5 g/ha [7, 14] | pest or weed control at 250 g/ha [7, 15] | pest or weed control at 15.625 g/ha [8, 13] | pest or weed control at 62.5 g/ha [8, 14] | pest or weed control at 250 g/ha [8, 15] | pest or weed control at 15.625 g/ha [9, 13] | pest or weed control at 62.5 g/ha [9, 14] | pest or weed control at 250 g/ha [9, 15] | pest or weed control at 15.625 g/ha [10, 13] | pest or weed control at 62.5 g/ha [10, 14] | pest or weed control at 250 g/ha [10, 15] | plant injury at 15.625 g/ha (corn (Zea mays) [11]; [13]) | plant injury at 62.5 g/ha (corn (Zea mays) [11]; [14]) | plant injury at 250 g/ha (corn (Zea mays) [11]; [15]) | pest or weed control at 15.625 g/ha [12, 13] | pest or weed control at 62.5 g/ha [12, 14] | pest or weed control at 250 g/ha [12, 15]
